# Biological target: γ-secretase (Homo sapiens, UniProt P49768)
# Test: in vitro assay of γ-secretase activity (HEK293 membrane fraction, recombinant APP substrate, Abeta ELISA)
# Type: biochemical
# Details: γ-secretase inhibition; HEK293 membrane fraction as source of γ-secretase, recombinant C-terminal 100 amino acids of human APP as substrate, Abeta detected by ELISA
# Excerpt: Description of γ-secretase Assay
# The activity of test compounds can be evaluated in assays which measure the proteolytic cleavage of suitable substrates by γ-secretase activity. These can be cellular assays where e.g., a substrate of γ-secretase is fused in its cytoplasmic domain to a transcription factor. Cells are transfected with this fusion gene and a reporter gene, e.g., firefly luciferase, which expression is enhanced by the transcription factor. Cleavage of the fused substrate by γ-secretase will lead to expression of the reporter gene which can be monitored in appropriate assays. The γ-secretase activity can also be determined in cell-free in vitro assays where e.g., a cell lysate containing the γ-secretase complex is incubated with a suitable APP-derived substrate which is cleaved to the Abeta peptides. The amount of produced peptides can be determined with specific ELISA assays. Cell lines of neuronal origin secrete Abeta peptides which can be measured with the specific ELISA assay. Treatment with compounds which inhibit γ-secretase leads to a reduction of secreted Abeta thus providing a measure of inhibition.
# The in vitro assay of γ-secretase activity uses a HEK293 membrane fraction as a source of γ-secretase and a recombinant APP substrate. The latter consists of the C-terminal 100 amino acids of human APP fused to a 6×Histidin tail for purification which is expressed in E. coli in a regulatable expression vector, e.g. pEt15. This recombinant protein corresponds to the truncated APP fragment which results after […] of the extracellular domain and which constitutes the γ-secretase substrate. The assay principle is described in Li Y M et al, PNAS 97(11), 6138-6143 (2000). Hek293 cells are mechanically disrupted, and the microsomal fraction is isolated by differential centrifugation. The membranes are solubilized in detergent (0.25% CHAPSO) and incubated with the APP substrate. The Abeta peptides which are produced by γ-secretase cleavage of the substrate are detected by specific ELISA assays as described (Brockhaus M et al, Neuroreport 9(7), 1481-1486 (1998).
# The preferred compounds show a IC50<10 nM. In the list below are described some data to the γ-secretase inhibition: […]
row,Compound,IC50 [nM]
1,"O=C1NCCC(F)(F)C[C@H]1N(Cc1ccc(-c2ncn[nH]2)cc1F)S(=O)(=O)c1ccc(Cl)cc1 [Example 12, 4-Chloro-N-((R)-5,5-difluoro-2-oxo-azepan-3-yl)-N-[2-floro-4-(2H-[1,2,4]triazol-3-yl)-benzyl]-benzenesulfonamide]",6
2,"O=C(NC1CC1)c1ccc(CN([C@@H]2CCC(F)(F)CNC2=O)S(=O)(=O)c2ccc(Cl)cc2)cc1 [Example 13, 4-{[(4-Chloro-benzenesulfonyl)-((R)-6,6-difluoro-2-oxo-azepan-3-yl)-amino]-methyl}-N-cyclopropyl-benzamide]",297
3,"COc1ccc(CN([C@@H]2CC(F)(F)CCNC2=O)S(=O)(=O)CCC(F)(F)F)cn1 [Example 16, 3,3,3-Trifluoro-propane-1-sulfonic acid ((R)-5,5-difluoro-2-oxo-azepan-3-yl)-(6-methoxy-pyridin-3-ylmethyl)-amide]",150
4,"COc1ccc(CN([C@@H]2CC(F)(F)CCNC2=O)S(=O)(=O)c2ccc(Cl)s2)cn1 [Example 17, 5-Chloro-thiophene-2-sulfonic acid ((R)-5,5-difluoro-2-oxo-azepan-3-yl)-(6-methoxy-pyridin-3-ylmethyl)-amide]",110
5,"COc1ccc(CN([C@@H]2CC(F)(F)CCNC2=O)S(=O)(=O)c2ccc(Cl)cc2)c(F)c1F [Example 4, 4-Chloro-N-(2,3-difluoro-4-methoxy-benzyl)-N-((R)-5,5-difluoro-2-oxo-azepan-3-yl)-benzenesulfonamide]",2

# — patent US7501406B2, “Fluoro substituted 2-oxo-azepan derivatives” (Hoffmann-La Roche Inc., priority 2005, dated 2009)
